Experiment [1] relates to RT112/84 cell line (FGFR3-fusion). As to the kind of experiment: Cancer cell line cell viability assay (Cell Titer-Glo), 72 hr. In kind it is cell-based. The note with it: Homo sapiens, RT112/84, RT112/84 cell line (FGFR3-fusion). Summed up:
(§1)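 RPMI1640/10% FBS for RT112/84 and MDA-MB-453; IMDM/20% FBS for KG-1; IMDM/10% FBS for HuH7. Cells plated overnight, dosed from 3 μM in 4-fold, 9-point series, incubated at 37° C, then lysed with Cell Titer-Glo 2.0; IC50 by sigmoidal fit.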
(ATP-based viability assays read luminescence as a measure of living cells.)

In experiment [2] the test system is KATO-III cell line (FGFR2 amplification). Described as above. In kind it is cell-based. The note with it: Homo sapiens, KATO III. Summed up:
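Cells seeded at 5,000-20,000/well, incubated overnight, then treated with a 9-dose, 4-fold dilution series from 3 μM in triplicate at 37° C, 5% CO2. Viability read by Cell Titer-Glo 2.0 luminescence as percent of DMSO control; IC50 from 4-parameter variable-slope sigmoidal fit.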

Experiment [3] deals with KG-1 cell line (FGFR 1-fusion). The description is as above. In kind it is cell-based. The following applies: Homo sapiens, KG-1, KG-1 cell line (FGFR1-fusion). Summed up: as §1
The subject of experiment [4] is HuH7 cell line (FGF19 amplification). As to the kind of experiment: Cancer cell line cell viability assay (Cell Titer-Glo), 120 hr. The note with it: Homo sapiens, Huh-7. The experiment is classed as cell-based. Summed up: as §1
The target of another experiment is T1, FGFR4 (Homo sapiens, UniProt P22455).
T1 construct: made in house; host or cells: E. coli (BL21-derived), T7 phage
As to the kind of experiment: Kinase binding assay (kinase-tagged T7 phage, affinity beads, qPCR), Kd. The note with it: read-out: FGFR4 (Kd nM). Summed up:
(§2)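 Phage-tagged kinase capture on small-molecule affinity resin, compound competition, qPCR quantitation; Kd from Levenberg-Marquardt Hill fit.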

For the next experiment, the target named is T2, FGFR3 (Homo sapiens, UniProt P22607).
T2 construct: made in house; host or cells: E. coli (BL21-derived), T7 phage
Described as above. The note with it: read-out: FGFR3 (Kd nM). Summed up: as §2

In a further experiment the target is T3, FGFR2 (Homo sapiens, UniProt P21802).
T3 construct: made in house; host or cells: E. coli (BL21-derived), T7 phage
The description is as above. The following applies: read-out: FGFR2 (Kd nM). Summed up:
as §2

The target of another experiment is T4, FGFR1 (Homo sapiens, UniProt P11362).
T4 construct: made in house; host or cells: E. coli (BL21-derived), T7 phage
The description is as above. The note with it: read-out: FGFR1 (Kd nM). Summed up:
as §2

Another experiment deals with T5, FGFR3 (V555M) (Homo sapiens, UniProt P22607, V555M).
T5 construct: made in house; host or cells: E. coli (BL21-derived), T7 phage
The experiment is described as above. The note with it: V555M mutant; read-out: FGFR3 (V555M) (Kd nM). Summed up:
as §2

Our source for the IC50 and Kd values is patent US20250368666A1, “INDAZOLE COMPOUNDS” (TYRA BIOSCIENCES, INC., priority 2022, published 2025).

pIC50: −log10 of the molar value.

T1 sequence (P22455 22-802): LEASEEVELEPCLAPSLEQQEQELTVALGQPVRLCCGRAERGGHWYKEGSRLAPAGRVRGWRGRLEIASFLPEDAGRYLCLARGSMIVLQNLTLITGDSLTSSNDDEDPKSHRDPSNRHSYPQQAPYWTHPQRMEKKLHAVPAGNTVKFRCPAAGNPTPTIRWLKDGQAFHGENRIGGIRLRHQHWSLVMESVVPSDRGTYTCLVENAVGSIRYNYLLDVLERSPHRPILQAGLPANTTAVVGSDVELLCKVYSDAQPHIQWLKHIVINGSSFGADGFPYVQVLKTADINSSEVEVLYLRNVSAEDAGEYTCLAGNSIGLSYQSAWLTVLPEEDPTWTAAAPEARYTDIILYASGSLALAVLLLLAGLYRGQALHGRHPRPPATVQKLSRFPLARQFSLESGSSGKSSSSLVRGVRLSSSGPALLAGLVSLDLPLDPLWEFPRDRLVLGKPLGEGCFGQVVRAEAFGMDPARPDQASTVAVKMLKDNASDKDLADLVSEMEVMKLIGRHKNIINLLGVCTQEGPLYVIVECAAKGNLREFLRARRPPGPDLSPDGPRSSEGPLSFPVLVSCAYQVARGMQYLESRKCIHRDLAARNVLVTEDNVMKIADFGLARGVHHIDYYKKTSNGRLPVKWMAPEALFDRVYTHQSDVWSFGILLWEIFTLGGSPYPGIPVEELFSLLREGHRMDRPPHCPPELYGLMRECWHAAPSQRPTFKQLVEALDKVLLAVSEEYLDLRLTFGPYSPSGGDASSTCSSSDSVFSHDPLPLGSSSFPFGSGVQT
T3 sequence (P21802 22-821): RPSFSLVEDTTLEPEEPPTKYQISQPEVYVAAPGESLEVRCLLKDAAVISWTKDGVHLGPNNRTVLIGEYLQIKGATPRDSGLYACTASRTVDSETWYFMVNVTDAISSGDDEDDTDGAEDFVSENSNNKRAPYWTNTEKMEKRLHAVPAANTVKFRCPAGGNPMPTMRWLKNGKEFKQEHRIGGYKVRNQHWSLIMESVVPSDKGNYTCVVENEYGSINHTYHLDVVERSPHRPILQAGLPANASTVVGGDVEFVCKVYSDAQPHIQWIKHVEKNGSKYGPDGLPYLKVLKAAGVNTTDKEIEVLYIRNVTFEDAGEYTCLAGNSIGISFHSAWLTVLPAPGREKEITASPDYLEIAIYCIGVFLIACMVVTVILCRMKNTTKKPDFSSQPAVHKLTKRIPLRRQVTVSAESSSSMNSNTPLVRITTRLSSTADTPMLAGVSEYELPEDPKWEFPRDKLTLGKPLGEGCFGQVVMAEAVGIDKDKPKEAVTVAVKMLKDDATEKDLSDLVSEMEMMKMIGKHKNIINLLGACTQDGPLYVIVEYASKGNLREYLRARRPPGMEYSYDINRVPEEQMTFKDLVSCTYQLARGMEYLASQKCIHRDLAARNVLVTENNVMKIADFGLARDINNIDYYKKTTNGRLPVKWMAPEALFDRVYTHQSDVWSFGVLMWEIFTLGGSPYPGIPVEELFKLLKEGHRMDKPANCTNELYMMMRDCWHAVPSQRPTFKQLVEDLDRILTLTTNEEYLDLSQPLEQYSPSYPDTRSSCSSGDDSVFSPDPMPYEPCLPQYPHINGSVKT
T4 sequence (P11362 22-822): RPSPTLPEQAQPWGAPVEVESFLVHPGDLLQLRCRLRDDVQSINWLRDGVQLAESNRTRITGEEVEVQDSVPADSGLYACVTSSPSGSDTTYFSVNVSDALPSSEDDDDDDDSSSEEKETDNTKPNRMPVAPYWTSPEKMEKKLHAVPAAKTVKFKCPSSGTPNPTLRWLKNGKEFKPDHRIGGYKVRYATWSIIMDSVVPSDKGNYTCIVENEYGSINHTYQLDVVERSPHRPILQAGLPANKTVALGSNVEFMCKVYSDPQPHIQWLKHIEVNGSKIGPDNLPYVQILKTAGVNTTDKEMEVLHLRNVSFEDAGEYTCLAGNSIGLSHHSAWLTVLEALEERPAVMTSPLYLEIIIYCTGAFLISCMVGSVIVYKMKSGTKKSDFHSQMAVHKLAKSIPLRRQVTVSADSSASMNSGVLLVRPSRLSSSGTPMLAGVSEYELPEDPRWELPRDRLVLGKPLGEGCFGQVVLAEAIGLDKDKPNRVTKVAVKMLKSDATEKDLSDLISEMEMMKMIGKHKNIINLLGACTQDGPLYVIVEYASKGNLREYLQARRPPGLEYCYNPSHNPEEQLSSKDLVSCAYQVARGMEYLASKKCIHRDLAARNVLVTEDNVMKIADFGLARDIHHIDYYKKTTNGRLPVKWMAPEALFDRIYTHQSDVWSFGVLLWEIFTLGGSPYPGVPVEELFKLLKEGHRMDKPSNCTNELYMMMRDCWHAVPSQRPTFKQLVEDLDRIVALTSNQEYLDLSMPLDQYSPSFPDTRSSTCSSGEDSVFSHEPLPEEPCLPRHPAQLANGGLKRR
T5 sequence (P22607 23-806 V555M): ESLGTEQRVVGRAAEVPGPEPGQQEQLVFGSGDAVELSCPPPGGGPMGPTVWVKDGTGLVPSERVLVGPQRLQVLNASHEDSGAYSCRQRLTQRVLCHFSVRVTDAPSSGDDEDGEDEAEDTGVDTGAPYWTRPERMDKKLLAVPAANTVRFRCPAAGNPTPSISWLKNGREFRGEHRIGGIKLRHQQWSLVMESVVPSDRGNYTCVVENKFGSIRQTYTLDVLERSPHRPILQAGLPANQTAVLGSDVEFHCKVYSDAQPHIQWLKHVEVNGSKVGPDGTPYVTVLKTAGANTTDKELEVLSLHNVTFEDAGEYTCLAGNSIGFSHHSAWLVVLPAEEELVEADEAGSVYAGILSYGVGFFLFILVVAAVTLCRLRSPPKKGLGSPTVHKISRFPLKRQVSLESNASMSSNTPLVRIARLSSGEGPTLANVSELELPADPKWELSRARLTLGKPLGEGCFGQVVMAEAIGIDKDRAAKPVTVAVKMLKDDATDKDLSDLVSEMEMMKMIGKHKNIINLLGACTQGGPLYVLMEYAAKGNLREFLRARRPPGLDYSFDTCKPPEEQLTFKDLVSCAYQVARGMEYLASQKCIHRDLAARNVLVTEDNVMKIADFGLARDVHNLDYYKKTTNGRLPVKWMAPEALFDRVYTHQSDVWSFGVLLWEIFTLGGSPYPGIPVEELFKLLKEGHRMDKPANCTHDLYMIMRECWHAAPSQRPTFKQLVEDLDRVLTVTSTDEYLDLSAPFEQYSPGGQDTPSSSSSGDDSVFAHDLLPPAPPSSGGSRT
T2 sequence (P22607 23-806): as the sequence (P22607 23-806 V555M) above, with M533V counted along it

Broadly, the pIC50 is the negative decadic logarithm of the IC50, by convention in mol/L. Low values mean a high IC50, high ones a low IC50. What is called Kd is the equilibrium constant for the complex coming apart. Regarding `COc1cc2[nH]nc(-c3cnc(N4CC(N)(CC(C)(C)O)C4)c(C#N)c3)c2cc1O[C@H](C)c1c(Cl)cncc1Cl` [Example 361, (R)-2-(3-amino-3-(2-hydroxy-2-methylpropyl)azetidin-1-yl)-5-(5-(1-(3,5-dichloropyridin-4-yl)ethoxy)-6-methoxy-1H-indazol-3-yl)nicotinonitrile], the pIC50 in experiment [1] was 6.70 to 7.30; in [2], 6.70 to 7.30; in experiment [3] it was 6.00 to 6.70; in experiment [4], 6.70 to 7.30. Besides, the Kd on FGFR4, on FGFR3, at FGFR2 and at FGFR1 was 1 to 50 nM each time.
Consider `COc1cc2[nH]nc(-c3cnc(N4CC(CC#N)(NC(C)C)C4)c(C#N)c3)c2cc1O[C@H](C)c1c(Cl)cncc1Cl` [Example 152, (R)-2-(3-(cyanomethyl)-3-(isopropylamino)azetidin-1-yl)-5-(5-(1-(3,5-dichloropyridin-4-yl)ethoxy)-6-methoxy-1H-indazol-3-yl)nicotinonitrile], for which the pIC50 is 7.30 to 10.00 in experiment [1], 6.70 to 7.30 in experiment [2], 6.00 to 6.70 in experiment [3] and 7.30 to 10.00 in [4]. In addition, the Kd on FGFR4, at FGFR3, on FGFR2 and on FGFR1 was 1 to 50 nM throughout.
As to `COc1cc2[nH]nc(-c3cnc(N4CC(C)(NC(=O)CN(C)C)C4)c(C#N)c3)c2cc1O[C@H](C)c1c(Cl)cncc1Cl` [Example 340, (R)-N-(1-(3-cyano-5-(5-(1-(3,5-dichloropyridin-4-yl)ethoxy)-6-methoxy-1H-indazol-3-yl)pyridin-2-yl)-3-methylazetidin-3-yl)-2-(dimethylamino)-acetamide], the pIC50 in experiment [1] is 7.30 to 10.00; in [2], 6.70 to 7.30; in experiment [3], 6.70 to 7.30; in experiment [4] it was 7.30 to 10.00. The Kd at FGFR4, on FGFR2 and at FGFR1 was 1 to 50 nM throughout.
Consider `COc1cc2[nH]nc(-c3cnc(N4CC(N)(CC#N)C4)c(C#N)c3)c2cc1O[C@H](C)c1c(Cl)cncc1Cl` [Example 345, 2-[3-amino-3-(cyanomethyl)azeti-din-1-yl]-5-[5-[(1R)-1-(3,5-dichloro-4-pyridyl)ethoxy]-6-methoxy-1H-indazol-3-yl]pyridine-3-carbonitrile], for which the negative-log IC50 (pIC50) in experiment [1] is 7.30 to 10.00; in experiment [2] it was 7.30 to 10.00; in experiment [3], 6.70 to 7.30; in experiment [4], 7.30 to 10.00. Moreover, the Kd on FGFR4, at FGFR3, at FGFR2 and at FGFR1 was 1 to 50 nM in each case.
In the case of `CCC1(N)CN(c2ncc(-c3n[nH]c4cc(OC)c(O[C@H](C)c5c(Cl)cncc5Cl)cc34)cc2C#N)C1` [Example 365, 2-(3-amino-3-ethyl-azetidin-1-yl)-5-[5-[(1R)-1-(3,5-dichloro-4-pyridyl)ethoxy]-6-methoxy-1H-indazol-3-yl]pyridine-3-carbonitrile], the pIC50 is 7.30 to 10.00 in experiment [1], 6.70 to 7.30 in experiment [2], 7.30 to 10.00 in experiment [3] and 7.30 to 10.00 in experiment [4]. The Kd at FGFR4, at FGFR3, on FGFR2 and on FGFR1 was 1 to 50 nM in each case.
As to `COc1cc2[nH]nc(-c3cnc(N4CC(N)(CC=C(C)C)C4)c(C#N)c3)c2cc1O[C@H](C)c1c(Cl)cncc1Cl` [Example 363, (R)-2-(3-amino-3-(3-methylbut-2-en-1-yl)azetidin-1-yl)-5-(5-(1-(3,5-dichloropyridin-4-yl)ethoxy)-6-methoxy-1H-indazol-3-yl)nicotinonitrile], the pIC50 in experiment [1] was 7.30 to 10.00; in experiment [2], 6.70 to 7.30; in [3] it was 6.00 to 6.70; in experiment [4], 7.30 to 10.00. The dissociation constant (Kd) at FGFR4, on FGFR3, on FGFR2 and at FGFR1 was 1 to 50 nM in each case.
With `COc1cc2[nH]nc(-c3cnc(N4CC(CC#N)(N(C)C)C4)c(C#N)c3)c2cc1O[C@H](C)c1c(Cl)cncc1Cl` [Example 352, (R)-2-(3-(cyanomethyl)-3-(dimethylamino)-azetidin-1-yl)-5-(5-(1-(3,5-dichloropyridin-4-yl)ethoxy)-6-methoxy-1H-indazol-3-yl)nicotinonitrile], the pIC50 in experiment [1], in experiment [2], in experiment [3] and in experiment [4] was 7.30 to 10.00 each time. For the same molecule, the dissociation constant Kd at FGFR4, on FGFR3, on FGFR2 and on FGFR1 was 1 to 50 nM throughout.
`C[C@@H](Oc1cc2c(-c3cnc(N4CC(C)(CN5CCOCC5)C4)c(C#N)c3)n[nH]c2cc1F)c1c(Cl)cncc1Cl` [Example 137, (R)-5-(5-(1-(3,5-dichloropyridin-4-yl)ethoxy)-6-fluoro-1H-indazol-3-yl)-2-(3-methyl-3-(morpholinomethyl)aze-tidin-1-yl)nicotinonitrile] gave a pIC50 in experiment [4] of 6.70 to 7.30. Moreover, the Kd on FGFR4 was in the range of 1 to 50 nM; on FGFR3, 1 to 50 nM; at FGFR2, 50 to 300 nM; at FGFR3 (V555M) it was 1 to 50 nM; on FGFR1, 50 to 300 nM.
On to `Cc1ncc(Cl)c([C@@H](C)Oc2ccc3[nH]nc(-c4cnc(N5CC(C)(N)C5)c(C#N)c4)c3c2)c1Cl` [Example 39, 2-(3-amino-3-methyl-azetidin-1-yl)-5-[5-[(1R)-1-(3,5-dichloro-2-methyl-4-pyridyl)ethoxy]-1H-indazol-3-yl]pyridine-3-carbonitrile], for which the negative-log IC50 (pIC50) in experiment [4] was 6.70 to 7.30. Further, the dissociation constant (Kd) at FGFR4 was in the range of 1 to 50 nM; on FGFR3, 1 to 50 nM; on FGFR2 it was 50 to 300 nM; on FGFR3 (V555M), 1 to 50 nM; on FGFR1, 50 to 300 nM.
In the case of `C[C@@H](Oc1cc2c(-c3cnc(N4CC(C)(NCCO)C4)c(C#N)c3)n[nH]c2cc1F)c1c(Cl)cncc1Cl` [Example 129, (R)-5-(5-(1-(3,5-dichloropyridin-4-yl)ethoxy)-6-fluoro-1H-indazol-3-yl)-2-(3-((2-hydroxyethyl)amino)-3-methylazetidin-1-yl)nicotinonitrile], the pIC50 in experiment [1] is 6.70 to 7.30; in experiment [2], 6.00 to 6.70; in [3], 6.00 to 6.70; in experiment [4], 6.70 to 7.30.
As for `C[C@@H](Oc1ccc2[nH]nc(-c3cnc(N4CC(C)(N(C)C)C4)c(C#N)c3)c2c1)c1c(Cl)cncc1Cl` [Example 29, (R)-5-(5-(1-(3,5-dichloropyridin-4-yl)ethoxy)-1H-indazol-3-yl)-2-(3-(dimethylamino)-3-methylazetidin-1-yl)nicotinonitrile], the negative-log IC50 (pIC50) in experiment [4] was 6.70 to 7.30. For the same molecule, the equilibrium dissociation constant (Kd) on FGFR4 was in the range of 1 to 50 nM; at FGFR3, 1 to 50 nM; on FGFR2, 50 to 300 nM; on FGFR3 (V555M) it was 1 to 50 nM; at FGFR1 it was 50 to 300 nM.
In experiment [4], `COc1cc2[nH]nc(-c3cnc(N4CC(C)(NC(C)C)C4)c(C#N)c3)c2cc1O[C@@H](C)c1c(Cl)cncc1Cl` [Example 330, (S)-5-(5-(1-(3,5-dichloropyridin-4-yl)ethoxy)-6-methoxy-1H-indazol-3-yl)-2-(3-(isopropylamino)-3-methylazetidin-1-yl)nicotinonitrile] gave a pIC50 of 6.00 to 6.70. Also, the Kd is 1 to 50 nM on FGFR4; 50 to 300 nM at FGFR3; 300 to 1000 nM at FGFR2; 50 to 300 nM on FGFR3 (V555M); 300 to 1000 nM on FGFR1.
